Source: US20190174760A1, “N-ALKYLSULFONYL CONDENSED HETEROCYCLIC COMPOUND OR SALT THEREOF, INSECTICIDE COMPRISING THE COMPOUND, AND METHOD FOR USING THE INSECTICIDE” (Nihon Nohyaku Co., Ltd., priority 2016, published 2019)

How the values were obtained:
Laodelphax striatellus = experiment: Insecticidal test on Laodelphax striatellus (rice seedling dip); format: in vivo; settings: 192 h, rice seedlings dipped 30 seconds, 3rd-instar larvae, 8 days after inoculation, read-out: insecticidal efficacy (corrected mortality rate) on Laodelphax striatellus
Source text: Insecticidal Test on Laodelphax striatellus
The compounds represented by the general formula (1) of the present invention or salts thereof were separately dispersed in water and diluted to 500 ppm. Rice plant seedlings (variety: Nihonbare) were dipped in the agrochemical dispersions for 30 seconds. After air-dried, each seedling was put into a separate glass test tube and inoculated with ten 3rd-instar larvae of Laodelphax striatellus, and then the glass test tubes were capped with cotton plugs. At 8 days after the inoculation, the numbers of surviving larvae and dead larvae were counted, the corrected mortality rate was calculated according to the formula shown below, and the insecticidal efficacy was evaluated according to the criteria shown below.
Corrected mortality rate (%)=100×(Survival rate in a non-treatment plot−Survival rate in a treatment plot)/Survival rate in a non-treatment plot [Math. 2]
A: the corrected mortality rate is 100%. B: the corrected mortality rate is 90 to 99%. C: the corrected mortality rate is 80 to 89%. D: the corrected mortality rate is 50 to 79%.

Plutella xylostella = experiment: Insecticidal test on Plutella xylostella (dip of Chinese cabbage seedlings with laid eggs); format: in vivo; settings: 144 h, seedlings with laid eggs dipped about 30 seconds, 25° C., 6 days after dip treatment, read-out: insecticidal efficacy (corrected mortality rate) on Plutella xylostella
Source text: Insecticidal Test on Plutella xylostella
Adults of Plutella xylostella were released onto Chinese cabbage seedlings and allowed to lay eggs thereon. At 2 days after the release of the adults, the Chinese cabbage seedlings with laid eggs were dipped for about 30 seconds in agrochemical formulations diluted to 500 ppm, each of which contained a different compound represented by the general formula (1) of the present invention as an active ingredient. After air-dried, the seedlings were kept in a thermostatic chamber at 25° C. At 6 days after the dip treatment, the number of hatched larvae per plot was counted, the mortality rate was calculated according to the formula shown below, and the insecticidal efficacy was evaluated according to the criteria of Test Example 2. This test was conducted in triplicate using 10 adults of Plutella xylostella per plot.
Corrected mortality rate (%)=100×(Number of hatched larvae in a non-treatment plot−Number of hatched larvae in a treatment plot)/Number of hatched larvae in a non-treatment plot [Math. 3]

Compound | mortality at 500 ppm (Laodelphax striatellus) [%] | mortality at 500 ppm (Plutella xylostella) [%]
CCS(=O)(=O)n1c(-c2nc3cc(C(F)(F)C(F)(F)F)nnc3n2C)cc2ccccc21 [Compound 1-33, 2-(1-ethylsulfonylindol-2-yl)-3-methyl-6-pentafluoroethyl-3H-imidazo[4,5-c]pyridazine] | 100 | 100
CCS(=O)(=O)n1c(-c2nc3cc(C(F)(F)F)cnc3n2C)cc2cc(C(F)(F)F)ccc21 [Compound 2-11, 2-(1-ethylsulfonyl-5-trifluoromethylindol-2-yl)-3-methyl-6-trifluoromethyl-3H-imidazo[4,5-b]pyridine] | 100 | 100
CCS(=O)(=O)n1c(-c2nc3cc(C(F)(F)C(F)(F)F)nnc3n2C)cc2ccc(F)cc21 [Compound 1-65, 2-(1-ethylsulfonyl-6-fluoroindol-2-yl)-3-methyl-6-pentafluoroethyl-3H-imidazo[4,5-c]pyridazine] | 100 | 100
CCS(=O)(=O)n1c(-c2nc3cc(SC(F)(F)F)ccc3o2)cc2ccccc21 [Compound 3-1, 2-(1-ethylsulfonylindol-2-yl)-5-trifluoromethylthiobenzo[d]oxazole] | – | 100
